Patent US20070128217A1 (priority 2003, published 2007)

Experiments:
[1] = system: control sera (pooled serum of ten healthy LUMC hospital workers; commercial negative donor pooled serum from the Dutch bloodbank); assay type: binding, human; parameters: Binding of Control serum LUMC to linear peptides / Binding of Control serum Blood-bank to linear peptides / Binding of Control serum LUMC to looped peptides / Binding of Control Serum Blood-Bank to Looped peptides / Binding of Control serum LUMC to linear peptides of the protein M of SARS-CoV Urbani / Binding of Control serum Blood-bank to linear peptides of the protein M of SARS-CoV Urbani / Binding of Control serum LUMC to looped peptides of the protein M of SARS-CoV Urbani / Binding of Control Serum Blood-Bank to Looped peptides of the protein M of SARS-CoV Urbani: unit not given here
[2] = system: recombinant human anti-SARS-CoV antibody 03-018; assay type: binding; parameters: Binding of antibody 03-018 to linear peptides of the N protein of SARS-CoV Urbani / Binding of antibody 03-018 to looped/cyclic peptides of the N protein of SARS-CoV Urbani: unit not given here
[3] = system: rabbit serum obtained by immunizing a rabbit with the SARS-CoV strain Frankfurt 1; assay type: binding; parameters: Binding of a rabbit serum to linear peptides / Binding of a rabbit serum to looped peptides / Rabbit serum linear peptides / Rabbit serum looped peptides / Binding of a rabbit serum to linear peptides of protein N of SARS-CoV Urbani (Rabbit serum linear peptides) / Binding of a rabbit serum to looped/cyclic peptides of protein N of SARS-CoV Urbani (Rabbit serum looped peptides): unit not given here
[4] = system: antibodies in sera from SARS patients (sera 1a, 1b, 2, 6, 37, 62, London, SARS-yellow, SARS-green); assay type: binding, human; parameters: Binding of serum 6 to linear peptides of protein X1 of SARS-CoV Urbani / Binding of serum 37 to linear peptides of protein X1 of SARS-CoV Urbani / Binding of serum 6 to looped/cyclic peptide (PEPSCAN-ELISA) / Binding of serum 37 to looped/cyclic peptide (PEPSCAN-ELISA) / Binding of serum 37 to looped/cyclic peptides of protein X1 of SARS-CoV Urbani / Binding of serum 6 to linear peptides of protein X2 / Binding of serum 37 to linear peptides of protein X2 / Binding of serum 37 to looped/cyclic peptides of protein X2 of SARS-CoV Urbani / Binding of serum 6 to linear peptides of protein M of SARS-CoV Urbani / Binding of serum 37 to linear peptides of protein M of SARS-CoV Urbani / Binding of serum 6 to looped/cyclic peptides of protein M of SARS-CoV Urbani / Binding of serum 37 to looped/cyclic peptides of protein M of SARS-CoV Urbani / Binding of serum 6 to linear peptides of protein X3 of SARS-CoV Urbani / Binding of serum 37 to linear peptides of protein X3 of SARS-CoV Urbani / Binding of serum 37 to looped/cyclic peptides of protein X3 of SARS-CoV Urbani / Binding of serum 6 to linear peptides of protein X4 of SARS-CoV Urbani / Binding of serum 37 to linear peptides of protein X4 of SARS-CoV Urbani / Binding of serum 37 to looped/cyclic peptides of protein X4 of SARS-CoV Urbani / Binding of serum 6 to linear peptides of protein X5 of SARS-CoV Urbani / Binding of serum 37 to linear peptides of protein X5 of SARS-CoV Urbani / Binding of serum 37 to looped/cyclic peptides of protein X5 of SARS-CoV Urbani / Binding of serum 6 to linear peptides of protein N of SARS-CoV Urbani / Binding of serum 37 to linear peptides of protein N of SARS-CoV Urbani / Binding of serum 6 to linear peptide (PEPSCAN-ELISA) / Binding of serum 1a to looped/cyclic peptides of protein N of SARS-CoV Urbani / Binding of serum 1b to looped/cyclic peptides of protein N of SARS-CoV Urbani / Binding of serum 2 to looped/cyclic peptides of protein N of SARS-CoV Urbani / Binding of serum 6 to looped/cyclic peptides of protein N of SARS-CoV Urbani / Binding of serum 37 to looped/cyclic peptides of protein N of SARS-CoV Urbani / Binding of serum 62 to looped/cyclic peptides of protein N of SARS-CoV Urbani / Binding of serum London to looped/cyclic peptides of protein N of SARS-CoV Urbani / Binding of serum SARS-green to looped/cyclic peptides of protein N of SARS-CoV Urbani: unit not given here

| Sequence | Binding of Control Serum Blood-Bank to Looped peptides [1] | Binding of Control serum Blood-bank to linear peptides [1] | Binding of Control serum LUMC to linear peptides [1] | Binding of Control serum LUMC to looped peptides [1] | Binding of serum 1a to linear peptides of protein N of SARS-CoV Urbani [4] | Binding of serum 1a to looped/cyclic peptides of protein N of SARS-CoV Urbani [4] | Binding of serum 1b to linear peptides of protein N of SARS-CoV Urbani [4] | Binding of serum 1b to looped/cyclic peptides of protein N of SARS-CoV Urbani [4] | Binding of serum 2 to linear peptides of protein N of SARS-CoV Urbani [4] | Binding of serum 2 to looped/cyclic peptides of protein N of SARS-CoV Urbani [4] | Binding of serum 6 to linear peptides of protein N of SARS-CoV Urbani [4] | Binding of serum 6 to looped/cyclic peptides of protein N of SARS-CoV Urbani [4] | Binding of serum 37 to linear peptides of protein N of SARS-CoV Urbani [4] | Binding of serum 37 to looped/cyclic peptides of protein N of SARS-CoV Urbani [4] | Binding of serum 62 to linear peptides of protein N of SARS-CoV Urbani [4] | Binding of serum 62 to looped/cyclic peptides of protein N of SARS-CoV Urbani [4] | Binding of serum London to linear peptides of protein N of SARS-CoV Urbani [4] | Binding of serum London to looped/cyclic peptides of protein N of SARS-CoV Urbani [4] | Binding of serum SARS-green to linear peptides of protein N of SARS-CoV Urbani [4] | Binding of serum SARS-green to looped/cyclic peptides of protein N of SARS-CoV Urbani [4] | other results |
| --- | --- | --- | --- | --- | --- | --- | --- | --- | --- | --- | --- | --- | --- | --- | --- | --- | --- | --- | --- | --- | --- |
| GPQSNQRSAPRITFG | 0.7 | 0.6 | 0.5 | 0.8 | 0.2 | 0.3 | 0.1 | 0.2 | 0.2 | 0.3 | 0.1 | 0.3 | 0.6 | 0.6 | 0.7 | 0.4 | 0.4 | 0.4 | 0.4 | 0.3 | Recognition of the peptide by antibody 03-018 [2]: recognized; Recognition of the peptide by the rabbit serum [3]: also recognized; Binding of serum SARS-yellow to linear peptides of protein N of SARS-CoV Urbani [4]: 0.5; Binding of serum SARS-yellow to looped/cyclic peptides of protein N of SARS-CoV Urbani [4]: 0.8 |
| GPTDSTDNNQNGGRN | 0.6 | 0.8 | 0.7 | 0.5 | 0.3 | 0.4 | 0.2 | 0.4 | 0.4 | 0.6 | 0.2 | 0.3 | 0.8 | 0.9 | 0.6 | 0.6 | 0.6 | 0.5 | 0.6 | 1.4 | Binding of antibody 03-018 to linear peptides of the N protein of SARS-CoV Urbani [2]: 0.2; Binding of antibody 03-018 to looped/cyclic peptides of the N protein of SARS-CoV Urbani [2]: 0.2; Binding of a rabbit serum to linear peptides of protein N of SARS-CoV Urbani (Rabbit serum linear peptides) [3]: 0.1; Binding of a rabbit serum to looped/cyclic peptides of protein N of SARS-CoV Urbani (Rabbit serum looped peptides) [3]: 0.4; Binding of serum SARS-yellow to linear peptides of protein N of SARS-CoV Urbani [4]: 0.6; Binding of serum SARS-yellow to looped/cyclic peptides of protein N of SARS-CoV Urbani [4]: 0.4 |
